Reference: publication PMC3781220 (The Journal of organic chemistry, 2010)
Like-named read-outs stand apart in the source and are kept apart here.

Legend:
[1] = molecular target: T1, recombinant yeast squalene synthase (Saccharomyces cerevisiae, UniProt P29704); format: biochemical; details: for potency ratio of 2R,3S enantiomer over 2S,3R enantiomer, absence of PPi: no added PPi
T1 sequence (P29704 1-420 limits assumed): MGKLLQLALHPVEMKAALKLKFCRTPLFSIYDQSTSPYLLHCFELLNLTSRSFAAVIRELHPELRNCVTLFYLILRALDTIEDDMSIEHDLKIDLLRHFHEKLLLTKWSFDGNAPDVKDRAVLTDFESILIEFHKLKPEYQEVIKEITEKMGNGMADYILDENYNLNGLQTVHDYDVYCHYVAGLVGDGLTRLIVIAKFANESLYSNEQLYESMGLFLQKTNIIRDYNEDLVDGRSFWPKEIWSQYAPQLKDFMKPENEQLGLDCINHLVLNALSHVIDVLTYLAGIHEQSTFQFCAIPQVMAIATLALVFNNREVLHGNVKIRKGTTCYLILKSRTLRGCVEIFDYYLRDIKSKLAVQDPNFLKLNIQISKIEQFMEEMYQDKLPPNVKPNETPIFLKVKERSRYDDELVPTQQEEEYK

[2] = molecular target: T1, recombinant yeast squalene synthase; details: cited from earlier work

With `CC(C)=CCC/C(C)=C/CCCCN1[C@H](COP(=O)([O-])OP(=O)([O-])[O-])[C@@]1(C)CC/C=C(\C)CCC=C(C)C.CCCC[N+](CCCC)(CCCC)CCCC.CCCC[N+](CCCC)(CCCC)CCCC.CCCC[N+](CCCC)(CCCC)CCCC` (relative stereo) [(2R,3S)-6-OPP, (2R,3S)-trans-[2-((E)-4,8-Dimethyl-3,7-nonadienyl)-1-((E)-6, 10-dimethyl-5,9-undecadienyl)-2-methylaziridin-3-yl]methyl Diphosphate, Tris (tetrabutylammonium) Salt] the “potency ratio of 2R,3S enantiomer over 2S,3R enantiomer, presence of PPi” value ([1]; 1.5 mM PPi) was 4 fold, the “synergistic effect of the PPi additive on inhibition” value ([1]; IC50 −PPi versus +PPi) was “almost no change” and the “potency ratio of 2R,3S enantiomer over 2S,3R enantiomer, absence of PPi” value [1] was “about 16 fold”. The “potency ratio of 2R,3S enantiomer over 2S,3R enantiomer, absence of PPi” value ([1]; listed as 2R,3S enantiomer) was 16 fold and the IC50 ([1]; read-out: IC50, +PPi, 1.5 mM PPi added, pH 7.2, 100 μM [3H]FPP, ± standard error) was 1170 ± 80 nM.
For `CC(C)=CCC/C(C)=C/CC/C(C)=C/C1C(COP(=O)(O)OP(=O)(O)O)C1(C)CC/C=C(\C)CCC=C(C)C` (stereo in doubt) [PSPP, presqualene diphosphate], the Ki ([2]; read-out: Ki PSPP, affinity of intermediate for the enzyme) is given as 75 ± 20 µM.
In the case of `CC(C)=CCC/C(C)=C/CC/C(C)=C/COP(=O)(O)OP(=O)(O)O` [FPP, (E,E)-farnesyl diphosphate, reference compound], the Km ([1]; read-out: Km for FPP, substrate constant given with the Ki experiment) is given as 20 µM and the “S0.5 FPP” value ([2]; affinity of substrate for the enzyme) is given as 19 ± 6 µM.
